Laboratory results: patent US9340590B2 (priority 2011, dated 2016)
Like-named read-outs stand apart in the source and are kept apart here. Positions of bridges follow the written chain, without caps; N, C: chain ends. Residues, ends and D or L forms follow the SMILES beside them.

Assays:
[1] = target: hNav1.5 (Homo sapiens, UniProt Q14524); assay: cell-based
[2] = target: hNav1.3 (Homo sapiens, UniProt Q9NY46); assay: cell-based; conditions: IonWorks Quattro, read-out: IWQ Use Nav1.3
[3] = IonWorks Quattro, clamped to −110 mV, depolarized to −10 mV, 5 min after compound, n=2, read-out: IWQ Use Nav1.5
[4] = clamped to −110 mV, depolarized to −10 mV, 5 min after compound, n=2

hNav1.5, sequence (Q14524 whole entry, looked up): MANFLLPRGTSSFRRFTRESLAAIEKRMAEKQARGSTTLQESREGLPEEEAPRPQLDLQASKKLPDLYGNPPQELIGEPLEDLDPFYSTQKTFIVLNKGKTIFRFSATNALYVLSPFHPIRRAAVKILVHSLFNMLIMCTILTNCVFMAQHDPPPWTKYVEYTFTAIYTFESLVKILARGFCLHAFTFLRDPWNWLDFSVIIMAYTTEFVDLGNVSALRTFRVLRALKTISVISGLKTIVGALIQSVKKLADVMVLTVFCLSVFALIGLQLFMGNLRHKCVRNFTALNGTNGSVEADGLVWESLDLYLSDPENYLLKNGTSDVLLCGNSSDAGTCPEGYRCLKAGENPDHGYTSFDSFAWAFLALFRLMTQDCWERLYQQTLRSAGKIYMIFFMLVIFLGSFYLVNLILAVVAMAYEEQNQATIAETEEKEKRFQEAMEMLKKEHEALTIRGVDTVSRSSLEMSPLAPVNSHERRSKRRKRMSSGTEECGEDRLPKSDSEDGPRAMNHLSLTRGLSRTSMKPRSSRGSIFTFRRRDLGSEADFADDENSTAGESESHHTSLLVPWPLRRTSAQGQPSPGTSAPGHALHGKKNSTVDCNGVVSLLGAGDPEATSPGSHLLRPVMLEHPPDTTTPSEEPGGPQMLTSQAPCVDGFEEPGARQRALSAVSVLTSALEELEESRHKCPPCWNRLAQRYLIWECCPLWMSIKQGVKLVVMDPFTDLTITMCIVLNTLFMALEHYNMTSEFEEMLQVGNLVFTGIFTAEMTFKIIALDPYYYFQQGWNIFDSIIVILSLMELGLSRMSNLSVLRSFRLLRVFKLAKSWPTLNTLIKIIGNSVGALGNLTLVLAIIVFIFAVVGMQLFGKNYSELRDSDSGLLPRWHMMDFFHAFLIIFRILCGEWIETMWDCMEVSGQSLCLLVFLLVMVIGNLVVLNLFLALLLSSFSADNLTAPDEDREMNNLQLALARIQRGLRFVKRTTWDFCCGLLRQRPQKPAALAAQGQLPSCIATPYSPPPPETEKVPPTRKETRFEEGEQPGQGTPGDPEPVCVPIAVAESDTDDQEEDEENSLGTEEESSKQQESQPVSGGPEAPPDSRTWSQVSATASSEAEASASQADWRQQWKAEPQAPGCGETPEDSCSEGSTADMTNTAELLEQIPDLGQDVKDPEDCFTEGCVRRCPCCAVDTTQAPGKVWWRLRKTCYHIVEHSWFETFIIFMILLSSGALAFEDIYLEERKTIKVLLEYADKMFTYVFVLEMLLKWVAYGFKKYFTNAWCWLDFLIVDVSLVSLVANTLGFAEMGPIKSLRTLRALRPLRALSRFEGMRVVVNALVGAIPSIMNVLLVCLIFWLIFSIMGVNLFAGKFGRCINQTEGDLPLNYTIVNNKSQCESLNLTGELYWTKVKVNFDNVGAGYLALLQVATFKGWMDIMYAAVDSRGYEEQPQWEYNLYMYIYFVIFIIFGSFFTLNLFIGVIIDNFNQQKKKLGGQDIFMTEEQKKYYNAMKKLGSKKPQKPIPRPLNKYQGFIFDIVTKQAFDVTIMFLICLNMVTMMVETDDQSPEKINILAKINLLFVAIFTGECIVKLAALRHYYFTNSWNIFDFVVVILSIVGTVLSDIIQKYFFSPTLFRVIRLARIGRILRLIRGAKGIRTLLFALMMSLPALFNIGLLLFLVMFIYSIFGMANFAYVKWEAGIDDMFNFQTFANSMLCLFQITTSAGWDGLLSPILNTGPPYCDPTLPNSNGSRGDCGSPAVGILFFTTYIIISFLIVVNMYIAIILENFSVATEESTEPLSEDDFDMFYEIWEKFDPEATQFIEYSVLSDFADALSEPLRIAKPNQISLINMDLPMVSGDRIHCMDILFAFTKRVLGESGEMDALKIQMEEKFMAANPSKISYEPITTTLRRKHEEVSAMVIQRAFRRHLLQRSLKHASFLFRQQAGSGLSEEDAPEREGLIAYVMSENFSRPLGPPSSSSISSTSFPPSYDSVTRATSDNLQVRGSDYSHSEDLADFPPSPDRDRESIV
hNav1.3, sequence (Q9NY46 whole entry, looked up): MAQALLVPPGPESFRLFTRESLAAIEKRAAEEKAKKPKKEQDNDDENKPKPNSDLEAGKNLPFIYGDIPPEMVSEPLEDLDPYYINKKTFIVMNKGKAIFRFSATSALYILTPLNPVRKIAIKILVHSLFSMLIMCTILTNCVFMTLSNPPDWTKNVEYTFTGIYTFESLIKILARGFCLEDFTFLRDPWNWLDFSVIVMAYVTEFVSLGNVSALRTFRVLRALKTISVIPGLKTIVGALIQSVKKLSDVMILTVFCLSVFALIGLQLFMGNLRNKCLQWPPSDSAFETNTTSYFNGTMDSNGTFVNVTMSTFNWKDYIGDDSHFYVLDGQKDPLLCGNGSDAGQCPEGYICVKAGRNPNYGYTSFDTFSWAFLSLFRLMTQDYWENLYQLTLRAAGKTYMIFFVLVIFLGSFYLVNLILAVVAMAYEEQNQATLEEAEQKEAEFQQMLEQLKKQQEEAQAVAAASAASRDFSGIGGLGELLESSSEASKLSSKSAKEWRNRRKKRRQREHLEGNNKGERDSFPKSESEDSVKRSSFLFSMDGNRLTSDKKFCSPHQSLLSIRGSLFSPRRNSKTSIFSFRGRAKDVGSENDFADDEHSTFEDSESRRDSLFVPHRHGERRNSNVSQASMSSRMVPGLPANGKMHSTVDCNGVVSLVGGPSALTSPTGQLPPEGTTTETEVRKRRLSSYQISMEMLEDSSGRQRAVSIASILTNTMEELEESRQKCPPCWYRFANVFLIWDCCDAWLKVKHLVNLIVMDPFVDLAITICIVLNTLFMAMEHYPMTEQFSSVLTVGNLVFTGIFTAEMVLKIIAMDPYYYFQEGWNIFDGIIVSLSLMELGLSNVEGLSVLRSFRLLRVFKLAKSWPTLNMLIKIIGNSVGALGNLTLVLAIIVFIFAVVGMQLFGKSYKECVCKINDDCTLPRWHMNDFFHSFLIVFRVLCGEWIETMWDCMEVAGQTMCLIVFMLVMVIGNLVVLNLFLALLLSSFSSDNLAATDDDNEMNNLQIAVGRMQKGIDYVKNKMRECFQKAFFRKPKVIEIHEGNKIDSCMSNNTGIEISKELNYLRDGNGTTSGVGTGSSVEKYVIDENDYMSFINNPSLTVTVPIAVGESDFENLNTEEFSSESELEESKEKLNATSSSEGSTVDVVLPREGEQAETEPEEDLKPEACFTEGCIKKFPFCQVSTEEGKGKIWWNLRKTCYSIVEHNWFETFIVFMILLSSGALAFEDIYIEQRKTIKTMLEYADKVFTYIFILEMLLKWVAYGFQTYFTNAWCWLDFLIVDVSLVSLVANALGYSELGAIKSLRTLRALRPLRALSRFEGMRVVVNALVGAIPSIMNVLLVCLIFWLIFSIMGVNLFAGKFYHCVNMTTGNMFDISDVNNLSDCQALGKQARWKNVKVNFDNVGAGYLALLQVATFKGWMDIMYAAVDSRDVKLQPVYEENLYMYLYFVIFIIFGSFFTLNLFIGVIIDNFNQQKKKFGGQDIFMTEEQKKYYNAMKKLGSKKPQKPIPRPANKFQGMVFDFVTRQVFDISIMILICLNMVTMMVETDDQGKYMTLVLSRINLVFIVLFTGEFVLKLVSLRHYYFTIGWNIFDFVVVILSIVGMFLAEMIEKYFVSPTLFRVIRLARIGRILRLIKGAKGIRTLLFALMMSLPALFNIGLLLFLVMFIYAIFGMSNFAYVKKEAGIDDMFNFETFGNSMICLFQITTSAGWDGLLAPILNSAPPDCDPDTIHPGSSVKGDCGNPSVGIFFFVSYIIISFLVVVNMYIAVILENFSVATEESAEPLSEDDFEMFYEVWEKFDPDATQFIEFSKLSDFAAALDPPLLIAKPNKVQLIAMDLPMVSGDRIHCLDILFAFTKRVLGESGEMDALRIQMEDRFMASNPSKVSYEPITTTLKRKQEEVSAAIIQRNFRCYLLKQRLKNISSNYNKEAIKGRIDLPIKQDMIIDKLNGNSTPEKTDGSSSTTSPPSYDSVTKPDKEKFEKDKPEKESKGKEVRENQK

| Compound | IC50 ([2]; Use) [nM] | IC50 ([1]; IWQ Use Nav1.5 (μM)) [µM] | IC50 [1, 3] [µM] | IC50 [2, 4] [nM] | further results |
| --- | --- | --- | --- | --- | --- |
| CSCC[C@@H]1NC(=O)[C@H](Cc2ccccc2)NC(=O)CNC(=O)[C@H](CC(C)C)NC(=O)[C@@H](NC(=O)[C@@H](N)CC(=O)O)CSSC[C@@H]2NC(=O)[C@@H]3CSSC[C@@H](C(=O)N[C@@H](CCCCN)C(=O)N[C@@H](Cc4ccc(O)cc4)C(=O)N[C@H](C(=O)N[C@@H](Cc4ccccc4)C(N)=O)C(C)C)NC(=O)[C@H](Cc4c[nH]c5ccccc45)NC(=O)[C@H](CCCCN)NC(=O)[C@H](Cc4cnc[nH]4)NC(=O)[C@H]([C@@H](C)O)NC(=O)[C@H](CCCNC(=N)N)NC(=O)[C@H](CO)NC(=O)[C@H](CSSC[C@H](NC(=O)[C@H](CCCCN)NC(=O)[C@H](CCCNC(=N)N)NC1=O)C(=O)N[C@@H](CCC(=O)O)C(=O)N1CCC[C@H]1C(=O)N[C@@H](CC(=O)O)C(=O)N[C@@H](CC(N)=O)C(=O)N[C@@H](CC(=O)O)C(=O)N[C@@H](CCCCN)C(=O)N3)NC(=O)[C@H](C(C)C)NC(=O)[C@H](CC(C)C)NC(=O)[C@H](CC(N)=O)NC(=O)[C@@H]1CCCN1C(=O)[C@H](CCCNC(=N)N)NC2=O [SEQ ID NO: 146, [Glu10]GpTx-1] (H-DCLGFMRKCEPDNDKCCRPNLVCSRTHKWCKYVF-NH2; disulfide 2-17, 9-23, 16-30) | 150 | – | – | – | IC50 ([1]; IonWorks Quattro, Use, read-out: IWQ Use Nav1.5): 9.55 µM |
| CC[C@H](C)[C@@H]1NC(=O)[C@@H]2CSSC[C@@H]3NC(=O)[C@H](C(C)C)NC(=O)[C@H](CC(C)C)NC(=O)[C@H](CC(N)=O)NC(=O)[C@@H]4CCCN4C(=O)[C@H](CCCNC(=N)N)NC(=O)[C@H](CSSC[C@H](NC(=O)[C@@H](N)CC(=O)O)C(=O)N[C@@H](CC(C)C)C(=O)NCC(=O)N[C@@H](Cc4ccccc4)C(=O)N[C@@H](CCSC)C(=O)N[C@@H](CCCNC(=N)N)C(=O)N[C@@H](CCCCN)C(=O)N2)NC(=O)[C@H](CSSC[C@@H](C(=O)N[C@@H](CCCCN)C(=O)N[C@@H](Cc2ccc(O)cc2)C(=O)N[C@H](C(=O)N[C@@H](Cc2ccccc2)C(N)=O)C(C)C)NC(=O)[C@H](Cc2c[nH]c4ccccc24)NC(=O)[C@H](CCCCN)NC(=O)[C@H](Cc2cnc[nH]2)NC(=O)[C@H]([C@@H](C)O)NC(=O)[C@H](CCCNC(=N)N)NC(=O)[C@H](CO)NC3=O)NC(=O)[C@H](CCCCN)NC(=O)[C@H](CC(=O)O)NC(=O)[C@H](CC(N)=O)NC(=O)[C@H](CC(=O)O)NC(=O)[C@H](CCC(=O)O)NC1=O [SEQ ID NO: 147, [Glu11]GpTx-1] (H-DCLGFMRKCIEDNDKCCRPNLVCSRTHKWCKYVF-NH2; disulfide 2-17, 9-23, 16-30) | 210 | 15.6 | – | – | – |
| CC[C@H](C)[C@@H]1NC(=O)[C@@H]2CSSC[C@@H]3NC(=O)[C@H](C(C)C)NC(=O)[C@H](CC(C)C)NC(=O)[C@H](CC(N)=O)NC(=O)[C@@H]4CCCN4C(=O)[C@H](CCCNC(=N)N)NC(=O)[C@H](CSSC[C@H](NC(=O)[C@@H](N)CC(=O)O)C(=O)N[C@@H](CCCNC(=N)N)C(=O)NCC(=O)N[C@@H](Cc4ccccc4)C(=O)N[C@@H](CCSC)C(=O)N[C@@H](CCCNC(=N)N)C(=O)N[C@@H](CCCCN)C(=O)N2)NC(=O)[C@H](CSSC[C@@H](C(=O)N[C@@H](CCCCN)C(=O)N[C@@H](Cc2ccc(O)cc2)C(=O)N[C@H](C(=O)N[C@@H](Cc2ccccc2)C(N)=O)C(C)C)NC(=O)[C@H](Cc2c[nH]c4ccccc24)NC(=O)[C@H](CCCCN)NC(=O)[C@H](Cc2cnc[nH]2)NC(=O)[C@H]([C@@H](C)O)NC(=O)[C@H](CCCNC(=N)N)NC(=O)[C@H](CO)NC3=O)NC(=O)[C@H](CCCCN)NC(=O)[C@H](CC(=O)O)NC(=O)[C@H](CC(N)=O)NC(=O)[C@H](CC(=O)O)NC(=O)[C@@H]2CCCN2C1=O [SEQ ID NO: 155] (H-DCRGFMRKCIPDNDKCCRPNLVCSRTHKWCKYVF-NH2; disulfide 2-17, 9-23, 16-30) | – | – | 8.45 | 50 | – |
| CC[C@H](C)[C@@H]1NC(=O)[C@@H]2CSSC[C@@H]3NC(=O)[C@H](C(C)C)NC(=O)[C@H](CC(C)C)NC(=O)[C@H](CC(N)=O)NC(=O)[C@@H]4CCCN4C(=O)[C@H](CCCNC(=N)N)NC(=O)[C@H](CSSC[C@H](NC(=O)[C@@H](N)CC(=O)O)C(=O)N[C@@H](CC(C)C)C(=O)NCC(=O)N[C@@H](CCCNC(=N)N)C(=O)N[C@@H](CCSC)C(=O)N[C@@H](CCCNC(=N)N)C(=O)N[C@@H](CCCCN)C(=O)N2)NC(=O)[C@H](CSSC[C@@H](C(=O)N[C@@H](CCCCN)C(=O)N[C@@H](Cc2ccc(O)cc2)C(=O)N[C@H](C(=O)N[C@@H](Cc2ccccc2)C(N)=O)C(C)C)NC(=O)[C@H](Cc2c[nH]c4ccccc24)NC(=O)[C@H](CCCCN)NC(=O)[C@H](Cc2cnc[nH]2)NC(=O)[C@H]([C@@H](C)O)NC(=O)[C@H](CCCNC(=N)N)NC(=O)[C@H](CO)NC3=O)NC(=O)[C@H](CCCCN)NC(=O)[C@H](CC(=O)O)NC(=O)[C@H](CC(N)=O)NC(=O)[C@H](CC(=O)O)NC(=O)[C@@H]2CCCN2C1=O [SEQ ID NO: 156] (H-DCLGRMRKCIPDNDKCCRPNLVCSRTHKWCKYVF-NH2; disulfide 2-17, 9-23, 16-30) | – | – | 12.6 | 4090 | – |
| CC[C@H](C)[C@@H]1NC(=O)[C@@H]2CSSC[C@@H]3NC(=O)[C@H](C(C)C)NC(=O)[C@H](CC(C)C)NC(=O)[C@H](CC(N)=O)NC(=O)[C@@H]4CCCN4C(=O)[C@H](CCCNC(=N)N)NC(=O)[C@H](CSSC[C@H](NC(=O)[C@@H](N)CC(=O)O)C(=O)N[C@@H](CC(C)C)C(=O)N[C@@H](Cc4c[nH]c5ccccc45)C(=O)N[C@@H](Cc4ccccc4)C(=O)N[C@@H](CCSC)C(=O)N[C@@H](CCCNC(=N)N)C(=O)N[C@@H](CCCCN)C(=O)N2)NC(=O)[C@H](CSSC[C@@H](C(=O)N[C@@H](CCCCN)C(=O)N[C@@H](Cc2ccc(O)cc2)C(=O)N[C@H](C(=O)N[C@@H](Cc2ccccc2)C(N)=O)C(C)C)NC(=O)[C@H](Cc2c[nH]c4ccccc24)NC(=O)[C@H](CCCCN)NC(=O)[C@H](Cc2cnc[nH]2)NC(=O)[C@H]([C@@H](C)O)NC(=O)[C@H](CCCNC(=N)N)NC(=O)[C@H](CO)NC3=O)NC(=O)[C@H](CCCCN)NC(=O)[C@H](CC(=O)O)NC(=O)[C@H](CC(N)=O)NC(=O)[C@H](CC(=O)O)NC(=O)[C@@H]2CCCN2C1=O [SEQ ID NO: 169] (H-DCLWFMRKCIPDNDKCCRPNLVCSRTHKWCKYVF-NH2; disulfide 2-17, 9-23, 16-30) | – | – | 10.3 | 30 | – |
| CC[C@H](C)[C@@H]1NC(=O)[C@@H]2CSSC[C@@H]3NC(=O)[C@H](C(C)C)NC(=O)[C@H](CC(C)C)NC(=O)[C@H](CC(N)=O)NC(=O)[C@@H]4CCCN4C(=O)[C@H](CCCNC(=N)N)NC(=O)[C@H](CSSC[C@H](NC(=O)[C@@H](N)CC(=O)O)C(=O)N[C@@H](CC(C)C)C(=O)NCC(=O)N[C@@H](Cc4ccccc4)C(=O)N[C@@H](CCSC)C(=O)N[C@@H](C)C(=O)N[C@@H](CCCCN)C(=O)N2)NC(=O)[C@H](CSSC[C@@H](C(=O)N[C@@H](CCCCN)C(=O)N[C@@H](Cc2ccc(O)cc2)C(=O)N[C@H](C(=O)N[C@@H](Cc2ccccc2)C(N)=O)C(C)C)NC(=O)[C@H](Cc2c[nH]c4ccccc24)NC(=O)[C@H](CCCCN)NC(=O)[C@H](Cc2cnc[nH]2)NC(=O)[C@H]([C@@H](C)O)NC(=O)[C@H](CCCNC(=N)N)NC(=O)[C@H](CO)NC3=O)NC(=O)[C@H](CCCCN)NC(=O)[C@H](CC(=O)O)NC(=O)[C@H](CC(N)=O)NC(=O)[C@H](CC(=O)O)NC(=O)[C@@H]2CCCN2C1=O [[Ala7]GpTx-1(1-34)] (H-DCLGFMAKCIPDNDKCCRPNLVCSRTHKWCKYVF-NH2; disulfide 2-17, 9-23, 16-30) | – | – | – | – | IC50 ([1]; IonWorks Quattro, use-dependent block, hNav1.5, read-out: IWQ Use Nav1.5): 21.5 µM; IC50 ([2]; use-dependent block, hNav1.3): 830 nM |
| CC[C@H](C)[C@@H]1NC(=O)[C@@H]2CSSC[C@@H]3NC(=O)[C@H](C(C)C)NC(=O)[C@H](CC(C)C)NC(=O)[C@H](CC(N)=O)NC(=O)[C@@H]4CCCN4C(=O)[C@H](CCCNC(=N)N)NC(=O)[C@H](CSSC[C@H](NC(=O)[C@@H](N)CC(=O)O)C(=O)N[C@@H](CC(C)C)C(=O)NCC(=O)N[C@@H](Cc4ccccc4)C(=O)N[C@@H](CCSC)C(=O)N[C@@H](CCCNC(=N)N)C(=O)N[C@@H](CCC(=O)O)C(=O)N2)NC(=O)[C@H](CSSC[C@@H](C(=O)N[C@@H](CCCCN)C(=O)N[C@@H](Cc2ccc(O)cc2)C(=O)N[C@H](C(=O)N[C@@H](Cc2ccccc2)C(N)=O)C(C)C)NC(=O)[C@H](Cc2c[nH]c4ccccc24)NC(=O)[C@H](CCCCN)NC(=O)[C@H](Cc2cnc[nH]2)NC(=O)[C@H]([C@@H](C)O)NC(=O)[C@H](CCCNC(=N)N)NC(=O)[C@H](CO)NC3=O)NC(=O)[C@H](CCCCN)NC(=O)[C@H](CC(=O)O)NC(=O)[C@H](CC(N)=O)NC(=O)[C@H](CC(=O)O)NC(=O)[C@@H]2CCCN2C1=O [[Glu8]GpTx-1(1-34)] (H-DCLGFMRECIPDNDKCCRPNLVCSRTHKWCKYVF-NH2; disulfide 2-17, 9-23, 16-30) | – | 24.9 | – | – | IC50 ([2]; use-dependent block, hNav1.3): 1360 nM |
| CC[C@H](C)[C@@H]1NC(=O)[C@@H]2CSSC[C@@H]3NC(=O)[C@H](C(C)C)NC(=O)[C@H](CC(C)C)NC(=O)[C@H](CC(N)=O)NC(=O)[C@@H]4CCCN4C(=O)[C@H](CCCNC(=N)N)NC(=O)[C@H](CSSC[C@H](NC(=O)[C@@H](N)CC(=O)O)C(=O)N[C@@H](CC(C)C)C(=O)NCC(=O)N[C@@H](Cc4ccccc4)C(=O)N[C@@H](CCSC)C(=O)N[C@@H](CCCNC(=N)N)C(=O)N[C@@H](CCCCN)C(=O)N2)NC(=O)[C@H](CSSC[C@@H](C(=O)N[C@@H](CCCCN)C(=O)N[C@@H](Cc2ccc(O)cc2)C(=O)N[C@H](C(=O)N[C@@H](Cc2ccccc2)C(N)=O)C(C)C)NC(=O)[C@H](Cc2c[nH]c4ccccc24)NC(=O)[C@H](CCCCN)NC(=O)[C@H](Cc2cnc[nH]2)NC(=O)[C@H]([C@@H](C)O)NC(=O)[C@H](CCCNC(=N)N)NC(=O)[C@H](CO)NC3=O)NC(=O)[C@H](CCCCN)NC(=O)[C@H](CC(=O)O)NC(=O)[C@H](CC(N)=O)NC(=O)[C@H](C)NC(=O)[C@@H]2CCCN2C1=O [compound 4] (H-DCLGFMRKCIPANDKCCRPNLVCSRTHKWCKYVF-NH2; disulfide 2-17, 9-23, 16-30) | 130 | 8.05 | – | – | – |
